This is an account of results in US10752621B2, “Oxazolidinone compounds and methods of use thereof as antibacterial agents” (priority 2017, dated 2020).

Converted amounts (≈) assume the structure as drawn. Where two headings read alike, the source gives them in different places.

The test has as its system Mycobacterium tuberculosis (Mtb-GFP; H37Rv pMSP12::GFP). Briefly: microbe, parasite or virus in culture. The conditions noted are these: 168 h. The class given is cell-based.
Where [1] appears, read: pH 6.8, read-out: Mtb Cho MITC95.
Where [2] appears, read: pH 6.8, read-out: Mtb Glu MITC95.

As for `Cn1nccc1-c1ccc(N2C[C@H](CN/C(N)=N/C#N)OC2=O)cc1F` [Example 1, (S,E)-2-cyano-1-((3-(3-fluoro-4-(1-methyl-1H-pyrazol-5-yl)phenyl)-2-oxooxazolidin-5-yl)methyl)guanidine], the MIC reads like this: under setting [1], 0.78 µM (≈ 0.279 µg/mL); under setting [2], 0.78 µM (≈ 0.279 µg/mL).

Take `Cc1nnn(-c2ccc(-c3ccc(N4C[C@H](CN/C(N)=N/C#N)OC4=O)cc3F)cn2)n1` [Example 2, (S,E)-2-cyano-1-((3-(3-fluoro-4-(6-(5-methyl-2H-tetrazol-2-yl)pyridin-3-yl)phenyl)-2-oxooxazolidin-5-yl)methyl)guanidine]: the MIC runs as follows: under setting [1], 0.19 µM (≈ 0.0829 µg/mL); under setting [2], 0.09 µM (≈ 0.0393 µg/mL).

With `N#C/N=C(\N)NC[C@H]1CN(c2ccc(-c3ccc(-n4nccn4)nc3)c(F)c2)C(=O)O1` [Example 3, (S,E)-1-((3-(4-(6-(2H-1,2,3-triazol-2-yl)pyridin-3-yl)-3-fluorophenyl)-2-oxooxazolidin-5-yl)methyl)-2-cyanoguanidine], the MIC runs as follows: under setting [1], 0.19 µM (≈ 0.0801 µg/mL); under setting [2], 0.19 µM (≈ 0.0801 µg/mL).

On to `CS(=O)(=O)c1ccc(-c2ccc(N3C[C@H](CN/C(N)=N/C#N)OC3=O)cc2F)cc1` [Example 4, (S,E)-2-cyano-1-((3-(2-fluoro-4′-(methylsulfonyl)-[1,1′-biphenyl]-4-yl)-2-oxooxazolidin-5-yl)methyl)guanidine], for which the MIC under setting [1] worked out at 0.39 µM (≈ 0.168 µg/mL) and the MIC under setting [2] amounted to 0.39 µM (≈ 0.168 µg/mL).

Turning to `CS(=O)(=O)c1ccc(-c2ccc(N3C[C@H](CN/C(N)=N/C#N)OC3=O)cc2F)cn1` [Example 5, (S,E)-2-cyano-1-((3-(3-fluoro-4-(6-(methylsulfonyl)pyridin-3-yl)phenyl)-2-oxooxazolidin-5-yl)methyl)guanidine], the MIC by setting is: under setting [1], 0.39 µM (≈ 0.169 µg/mL); under setting [2], 0.78 µM (≈ 0.337 µg/mL).

`C/C(=N\C#N)NC[C@H]1CN(c2ccc(-c3ccnn3C)c(F)c2)C(=O)O1` [Example 6, (S,E)-N′-cyano-N-((3-(3-fluoro-4-(1-methyl-1H-pyrazol-5-yl)phenyl)-2-oxooxazolidin-5-yl)methyl)acetimidamide]: the MIC is, setting by setting: under setting [1], 0.78 µM (≈ 0.278 µg/mL); under setting [2], 0.78 µM (≈ 0.278 µg/mL).

With `C/C(=N\C#N)NC[C@H]1CN(c2ccc(-c3cccc(S(N)(=O)=O)c3)c(F)c2)C(=O)O1` [Example 7, (S,E)-N′-cyano-N-((3-(2-fluoro-3′-sulfamoyl-[1,1′-biphenyl]-4-yl)-2-oxooxazolidin-5-yl)methyl)acetimidamide], the MIC turned out to be 1.14 µM (≈ 0.492 µg/mL) under setting [1] and 1.5 µM (≈ 0.647 µg/mL) under setting [2].

In the case of `C/C(=N\C#N)NC[C@H]1CN(c2cnc(N3CCS(=O)(=O)CC3)c(F)c2)C(=O)O1` [Example 8, (S,E)-N′-cyano-N-((3-(6-(1,1-dioxidothiomorpholino)-5-fluoropyridin-3-yl)-2-oxooxazolidin-5-yl)methyl)acetimidamide], the MIC came to 6.25 µM (≈ 2.57 µg/mL) under setting [1] and 6.25 µM (≈ 2.57 µg/mL) under setting [2].

Consider `C/C(=N\C#N)NC[C@H]1CN(c2ccc(N3CCOCC3)c(F)c2)C(=O)O1` [Example 9, (S,E)-N′-cyano-N-((3-(3-fluoro-4-morpholinophenyl)-2-oxooxazolidin-5-yl)methyl)acetimidamide], for which the MIC is, setting by setting: under setting [1], 3.12 µM (≈ 1.13 µg/mL); under setting [2], 3.12 µM (≈ 1.13 µg/mL).

Regarding `C/C(=N\C#N)NC[C@H]1CN(c2ccc(-c3ccc(-n4nccn4)nc3)c(F)c2)C(=O)O1` [Example 10, (S,E)-N-((3-(4-(6-(2H-1,2,3-triazol-2-yl)pyridin-3-yl)-3-fluorophenyl)-2-oxooxazolidin-5-yl)methyl)-N′-cyanoacetimidamide], the MIC by setting is: under setting [1], 0.39 µM (≈ 0.164 µg/mL); under setting [2], 0.14 µM (≈ 0.0589 µg/mL).

`C/C(=N\C#N)NC[C@H]1CN(c2cc(F)c(N3CCS(=O)(=O)CC3)c(F)c2)C(=O)O1` [Example 11, (S,E)-N′-cyano-N-((3-(4-(1,1-dioxidothiomorpholino)-3,5-difluorophenyl)-2-oxooxazolidin-5-yl)methyl)acetimidamide]: the MIC by setting is: under setting [1], 3.12 µM (≈ 1.33 µg/mL); under setting [2], 1.5 µM (≈ 0.641 µg/mL).

As for `C/C(=N\C#N)NC[C@H]1CN(c2ccc(-c3ccc(-n4nnc(C)n4)nc3)c(F)c2)C(=O)O1` [Example 12, (S,E)-N′-cyano-N-((3-(3-fluoro-4-(6-(5-methyl-2H-tetrazol-2-yl)pyridin-3-yl)phenyl)-2-oxooxazolidin-5-yl)methyl)acetimidamide], the MIC runs as follows: under setting [1], 0.19 µM (≈ 0.0827 µg/mL); under setting [2], 0.14 µM (≈ 0.061 µg/mL).

For the compound `C/C(=N\C#N)NC[C@H]1CN(c2ccc(-c3ccc(S(C)(=O)=O)nc3)c(F)c2)C(=O)O1` [Example 13, (S,E)-N′-cyano-N-((3-(3-fluoro-4-(6-(methylsulfonyl)pyridin-3-yl)phenyl)-2-oxooxazolidin-5-yl)methyl)acetimidamide], the MIC by setting is: under setting [1], 1.5 µM (≈ 0.647 µg/mL); under setting [2], 0.78 µM (≈ 0.337 µg/mL).

`C/C(=N\C#N)NC[C@H]1CN(c2ccc(-c3ccc(S(C)(=O)=O)cc3)c(F)c2)C(=O)O1` [Example 14, (S,E)-N′-cyano-N-((3-(2-fluoro-4′-(methylsulfonyl)-[1,1′-biphenyl]-4-yl)-2-oxooxazolidin-5-yl)methyl)acetimidamide]: the MIC by setting is: under setting [1], 0.58 µM (≈ 0.25 µg/mL); under setting [2], 0.58 µM (≈ 0.25 µg/mL).

Regarding `Cn1nccc1-c1ccc(N2C[C@H](CNC=N)OC2=O)cc1F` [Example 15, (S)-N-((3-(3-fluoro-4-(1-methyl-1H-pyrazol-5-yl)phenyl)-2-oxooxazolidin-5-yl)methyl)formimidamide], the MIC was 0.78 µM (≈ 0.248 µg/mL) under setting [1] and 0.39 µM (≈ 0.124 µg/mL) under setting [2].

Turning to `CS(=O)(=O)c1ccc(-c2ccc(N3C[C@H](CNC=N)OC3=O)cc2F)cc1` [Example 16, (S)-N-((3-(2-fluoro-4′-(methylsulfonyl)-[1,1′-biphenyl]-4-yl)-2-oxooxazolidin-5-yl)methyl)formimidamide], the MIC under setting [1] stood at 0.39 µM (≈ 0.153 µg/mL) and the MIC under setting [2] is 0.19 µM (≈ 0.0744 µg/mL).

On to `N=CNC[C@H]1CN(c2ccc(-c3ccc(-n4cnnn4)nc3)c(F)c2)C(=O)O1` [Example 17, (S)-N-((3-(4-(6-(1H-tetrazol-1-yl)pyridin-3-yl)-3-fluorophenyl)-2-oxooxazolidin-5-yl)methyl)formimidamide], for which the MIC came out at 0.24 µM (≈ 0.0918 µg/mL) under setting [1] and 0.12 µM (≈ 0.0459 µg/mL) under setting [2].

Turning to `N=CNC[C@H]1CN(c2cc(F)c(-c3ccc(S(N)(=O)=O)cc3)c(F)c2)C(=O)O1` [Example 18, (S)-N-((3-(2,6-difluoro-4′-sulfamoyl-[1,1′-biphenyl]-4-yl)-2-oxooxazolidin-5-yl)methyl)formimidamide], the MIC worked out at 0.39 µM (≈ 0.16 µg/mL) under setting [1] and 0.29 µM (≈ 0.119 µg/mL) under setting [2].

For the compound `N=CNC[C@H]1CN(c2cc(F)c(-c3cccc(S(N)(=O)=O)c3)c(F)c2)C(=O)O1` [Example 19, (S)-N-((3-(2,6-difluoro-3′-sulfamoyl-[1,1′-biphenyl]-4-yl)-2-oxooxazolidin-5-yl)methyl)formimidamide], the MIC runs as follows: under setting [1], 0.68 µM (≈ 0.279 µg/mL); under setting [2], 0.39 µM (≈ 0.16 µg/mL).

Take `N=CNC[C@H]1CN(c2cc(F)c(N3CCOCC3)c(F)c2)C(=O)O1` [Example 20, (S)-N-((3-(3,5-difluoro-4-morpholinophenyl)-2-oxooxazolidin-5-yl)methyl)formimidamide]: the MIC came to 0.58 µM (≈ 0.197 µg/mL) under setting [1] and 0.14 µM (≈ 0.0476 µg/mL) under setting [2].

Regarding `CC(=N)NC[C@H]1CN(c2ccc(-c3ccnn3C)c(F)c2)C(=O)O1` [Example 21, (S)-N-((3-(3-fluoro-4-(1-methyl-1H-pyrazol-5-yl)phenyl)-2-oxooxazolidin-5-yl)methyl)acetimidamide], the MIC reads like this: under setting [1], 25 µM (≈ 8.28 µg/mL); under setting [2], 25 µM (≈ 8.28 µg/mL).

Consider `CC(=N)NC[C@H]1CN(c2cc(F)c(-c3cccc(S(N)(=O)=O)c3)c(F)c2)C(=O)O1` [Example 22, (S)-N-((3-(2,6-difluoro-3′-sulfamoyl-[1,1′-biphenyl]-4-yl)-2-oxooxazolidin-5-yl)methyl)acetimidamide], for which the MIC was determined as 6.25 µM (≈ 2.65 µg/mL) under setting [1] and 3.12 µM (≈ 1.32 µg/mL) under setting [2].

Turning to `CC(=N)NC[C@H]1CN(c2ccc(-c3ccc(-n4cnnn4)nc3)c(F)c2)C(=O)O1` [Example 23, (S)-N-((3-(4-(6-(1H-tetrazol-1-yl)pyridin-3-yl)-3-fluorophenyl)-2-oxooxazolidin-5-yl)methyl)acetimidamide], the MIC stood at 12.5 µM (≈ 4.95 µg/mL) under setting [1] and 6.25 µM (≈ 2.48 µg/mL) under setting [2].

Consider `CC(=N)NC[C@H]1CN(c2ccc(-c3cccc(S(N)(=O)=O)c3)c(F)c2)C(=O)O1` [Example 24, (S)-N-((3-(2-fluoro-3′-sulfamoyl-[1,1′-biphenyl]-4-yl)-2-oxooxazolidin-5-yl)methyl)acetimidamide], for which the MIC runs as follows: under setting [1], 6.25 µM (≈ 2.54 µg/mL); under setting [2], 6.25 µM (≈ 2.54 µg/mL).

With `CC(=O)NC[C@H]1CN(c2ccc(N3CCOCC3)c(F)c2)C(=O)O1` [Linezolid, reference compound], the MIC is 3.14 µM (≈ 1.06 µg/mL) under setting [1] and 4.58 µM (≈ 1.55 µg/mL) under setting [2].
